# In ChEMBL document CHEMBL1201862, “PubChem BioAssay data set” (2004):
# pIC50: −log10 of the molar value. Activity calls are given as the source filed them.
# Tests used:
# [1] = viability loss of HMLE_sh_eGFP cells – cell-based, luminescence, counter-screen for HMLE_sh_ECad selective toxicity project, dose response (AID 463074); format: functional, Homo sapiens;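 further: HMLE human mammary epithelial cells expressing control shRNA against eGFP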
# [2] = Luminescence Cell-Based Dose Retest to Confirm Inhibitors of Cancer Stem Cells. [Related pubchem assays (depositor defined):AID2717, AID2721]; format: functional, Homo sapiens; details: Homo sapiens
# [3] = target: T1, Delta-type opioid receptor (Homo sapiens, UniProt P41143); experiment: HTS Image-Based Screen for Agonists of the DOR Receptor. [Related pubchem assays (depositor defined):AID1777, AID1786, AID2133]; format: functional
# T1 sequence (P41143 whole entry): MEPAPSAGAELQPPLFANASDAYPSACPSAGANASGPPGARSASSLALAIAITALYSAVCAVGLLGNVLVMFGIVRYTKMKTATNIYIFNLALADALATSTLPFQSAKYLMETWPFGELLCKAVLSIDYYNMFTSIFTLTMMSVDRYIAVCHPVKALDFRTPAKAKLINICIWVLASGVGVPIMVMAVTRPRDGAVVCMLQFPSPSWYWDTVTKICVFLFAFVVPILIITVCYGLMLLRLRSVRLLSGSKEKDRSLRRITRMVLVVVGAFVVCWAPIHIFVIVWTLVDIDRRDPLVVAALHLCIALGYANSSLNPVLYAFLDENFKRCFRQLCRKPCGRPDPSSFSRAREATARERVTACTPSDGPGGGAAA
# [4] = test system: Streptococcus; experiment: GAS UMAA2166 growth inhibition – luminescence, BacTiterGlo, counter-screen for streptokinase expression inhibitor project, dose response (AID 1915); format: functional, organism-based;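 further: potency for reduction of bacterial viability or growth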
# [5] = target: T2, Kappa-type opioid receptor (Homo sapiens, UniProt P41145); format: functional
# T2 sequence (P41145 whole entry): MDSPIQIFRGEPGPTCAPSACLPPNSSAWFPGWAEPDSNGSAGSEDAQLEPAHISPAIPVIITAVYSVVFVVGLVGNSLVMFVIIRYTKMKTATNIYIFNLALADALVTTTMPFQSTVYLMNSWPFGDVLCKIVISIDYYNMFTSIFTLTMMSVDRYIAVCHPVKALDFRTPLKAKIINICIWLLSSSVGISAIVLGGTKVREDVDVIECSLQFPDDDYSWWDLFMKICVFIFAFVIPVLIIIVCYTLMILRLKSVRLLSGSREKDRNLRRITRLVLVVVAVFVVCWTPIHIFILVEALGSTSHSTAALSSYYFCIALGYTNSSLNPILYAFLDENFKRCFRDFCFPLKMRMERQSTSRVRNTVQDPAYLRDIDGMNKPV
# [6] = target: Beta-galactosidase (Escherichia coli, UniProt Q8VNN2); format: functional
# Beta-galactosidase, sequence (Q8VNN2 whole entry): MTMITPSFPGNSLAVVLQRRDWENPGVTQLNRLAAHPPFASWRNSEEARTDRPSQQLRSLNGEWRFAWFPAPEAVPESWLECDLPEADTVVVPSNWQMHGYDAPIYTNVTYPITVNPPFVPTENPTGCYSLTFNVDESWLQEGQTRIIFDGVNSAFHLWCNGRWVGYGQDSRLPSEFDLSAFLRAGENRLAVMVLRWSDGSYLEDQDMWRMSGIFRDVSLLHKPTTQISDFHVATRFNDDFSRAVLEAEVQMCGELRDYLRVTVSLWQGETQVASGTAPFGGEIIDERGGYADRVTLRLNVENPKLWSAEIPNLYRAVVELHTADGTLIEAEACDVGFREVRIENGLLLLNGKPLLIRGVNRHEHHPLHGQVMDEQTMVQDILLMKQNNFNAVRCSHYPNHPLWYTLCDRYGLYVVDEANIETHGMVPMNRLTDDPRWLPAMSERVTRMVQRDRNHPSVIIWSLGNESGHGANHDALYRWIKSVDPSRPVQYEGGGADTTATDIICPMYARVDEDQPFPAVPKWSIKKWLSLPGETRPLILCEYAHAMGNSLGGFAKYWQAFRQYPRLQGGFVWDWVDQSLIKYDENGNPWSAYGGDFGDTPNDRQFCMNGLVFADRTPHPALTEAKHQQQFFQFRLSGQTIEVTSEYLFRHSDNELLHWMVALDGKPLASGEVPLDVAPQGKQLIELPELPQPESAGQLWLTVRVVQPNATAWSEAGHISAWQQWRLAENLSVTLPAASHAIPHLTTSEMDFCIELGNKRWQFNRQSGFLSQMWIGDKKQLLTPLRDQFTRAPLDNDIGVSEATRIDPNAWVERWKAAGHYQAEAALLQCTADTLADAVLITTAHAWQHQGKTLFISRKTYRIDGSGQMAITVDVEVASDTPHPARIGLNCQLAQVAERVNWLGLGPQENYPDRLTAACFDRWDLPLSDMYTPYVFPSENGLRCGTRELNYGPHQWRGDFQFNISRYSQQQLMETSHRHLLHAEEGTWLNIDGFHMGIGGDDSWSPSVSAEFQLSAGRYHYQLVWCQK
# [7] = target: Mu-type opioid receptor (Homo sapiens, UniProt P35372); experiment: HTS Image-Based Screen for Agonists of the MOR Receptor. [Related pubchem assays (depositor defined):AID1777, AID1785, AID1786, AID2133]; format: functional;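 further: imaging of beta-arrestin GFP recruitment into spots after receptor activation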
# Mu-type opioid receptor, sequence (P35372 whole entry): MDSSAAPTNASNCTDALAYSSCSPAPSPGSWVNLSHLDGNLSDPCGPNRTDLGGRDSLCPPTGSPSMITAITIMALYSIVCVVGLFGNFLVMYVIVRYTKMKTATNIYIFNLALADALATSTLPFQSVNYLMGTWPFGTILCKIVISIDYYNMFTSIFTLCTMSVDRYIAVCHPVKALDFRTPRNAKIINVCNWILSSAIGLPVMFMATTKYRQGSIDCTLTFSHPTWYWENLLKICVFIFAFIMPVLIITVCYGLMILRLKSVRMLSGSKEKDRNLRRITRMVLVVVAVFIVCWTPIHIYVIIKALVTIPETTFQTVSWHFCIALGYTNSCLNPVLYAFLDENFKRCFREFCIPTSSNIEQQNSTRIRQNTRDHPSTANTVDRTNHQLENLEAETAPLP
# [8] = target: T1, Delta-type opioid receptor; experiment: HTS Image-Based Screen for Antagonists of the DOR Receptor. [Related pubchem assays (depositor defined):AID1777, AID1785, AID1786, AID2133]; format: functional
# [9] = test system: Streptococcus sp. 'group A'; experiment: Streptococcus pyogenes SK(-)GAS viability under kanamycin – luminescence, BacTiterGlo, confirmation, counter-screen for streptokinase expression inhibitor project, dose response (AID 1900); format: functional, organism-based
# [10] = target: T2, Kappa-type opioid receptor; format: functional; remark: listed apart in the source
# [11] = target: T3, Streptokinase A (Streptococcus pyogenes serotype M1, UniProt P10520); experiment: viability-normalized secreted streptokinase activity reduction – plasminogen activation absorbance, OD405, dose response (AID 1914); format: functional, Streptococcus pyogenes M1 GAS;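 further: secreted streptokinase activity via plasminogen activation per viability signal from cell pellet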
# T3 sequence (P10520 whole entry): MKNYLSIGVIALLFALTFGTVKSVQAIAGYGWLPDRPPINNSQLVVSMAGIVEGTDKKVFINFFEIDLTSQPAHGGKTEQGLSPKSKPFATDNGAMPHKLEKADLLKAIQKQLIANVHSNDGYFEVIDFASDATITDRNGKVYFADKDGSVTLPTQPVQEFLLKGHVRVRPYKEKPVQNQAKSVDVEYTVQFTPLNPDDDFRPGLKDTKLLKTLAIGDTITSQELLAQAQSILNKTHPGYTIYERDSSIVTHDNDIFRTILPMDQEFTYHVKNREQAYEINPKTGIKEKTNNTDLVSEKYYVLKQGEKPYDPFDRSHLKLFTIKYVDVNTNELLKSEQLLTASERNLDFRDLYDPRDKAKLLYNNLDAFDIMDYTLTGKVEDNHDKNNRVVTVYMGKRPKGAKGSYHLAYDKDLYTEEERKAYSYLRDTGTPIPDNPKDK
# [12] = target: T4, Cysteine protease ATG4B (Homo sapiens, UniProt Q9Y4P1); format: functional;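 further: Fluorescence-based dose-response confirmation assay measuring inhibition of ATG4B activity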
# T4 sequence (Q9Y4P1 whole entry): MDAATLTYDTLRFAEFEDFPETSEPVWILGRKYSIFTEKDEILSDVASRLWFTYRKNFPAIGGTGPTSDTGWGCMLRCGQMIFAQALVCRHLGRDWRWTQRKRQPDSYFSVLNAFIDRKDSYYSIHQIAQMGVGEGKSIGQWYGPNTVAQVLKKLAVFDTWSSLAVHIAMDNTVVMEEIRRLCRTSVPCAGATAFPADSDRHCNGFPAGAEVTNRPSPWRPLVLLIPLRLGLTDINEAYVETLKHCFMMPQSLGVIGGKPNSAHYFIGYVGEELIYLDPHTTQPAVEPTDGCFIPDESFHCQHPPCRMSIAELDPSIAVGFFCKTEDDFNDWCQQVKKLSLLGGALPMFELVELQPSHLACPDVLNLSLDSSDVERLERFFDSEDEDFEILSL
# [13] = target: Phospholipase A2 (Homo sapiens, UniProt P04054); format: functional;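 further: confirmatory dose-response counterscreen on phospholipase A2, testing hits that came from an ultra-high-throughput screen for ATG4B inhibitors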
# Phospholipase A2, sequence (P04054 whole entry): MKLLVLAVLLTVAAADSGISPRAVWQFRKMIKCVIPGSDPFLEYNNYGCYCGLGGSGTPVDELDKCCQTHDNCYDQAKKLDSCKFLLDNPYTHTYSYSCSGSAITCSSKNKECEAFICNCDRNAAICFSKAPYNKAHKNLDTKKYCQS
# [14] = target: T5, Phosphoethanolamine/phosphocholine phosphatase (Homo sapiens, UniProt Q8TCT1); experiment: SAR assay for compounds that inhibit PHOSPHO1. [Related pubchem assays (depositor defined):AID1545, AID1565, AID1574]
# T5 sequence (Q8TCT1 whole entry): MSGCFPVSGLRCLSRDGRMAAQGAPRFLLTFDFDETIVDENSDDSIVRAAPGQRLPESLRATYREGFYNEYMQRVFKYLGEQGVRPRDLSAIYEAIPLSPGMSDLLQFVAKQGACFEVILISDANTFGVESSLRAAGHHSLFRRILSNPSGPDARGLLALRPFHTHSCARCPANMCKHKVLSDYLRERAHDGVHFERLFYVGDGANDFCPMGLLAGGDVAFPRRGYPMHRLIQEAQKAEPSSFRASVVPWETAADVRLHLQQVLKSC
# [15] = target: T6, Mannose-6-phosphate isomerase (Homo sapiens, UniProt P34949); experiment: phosphomannose isomerase inhibition – biochemical, fluorescence intensity, confirmation (AID 1535)
# T6 sequence (P34949 whole entry): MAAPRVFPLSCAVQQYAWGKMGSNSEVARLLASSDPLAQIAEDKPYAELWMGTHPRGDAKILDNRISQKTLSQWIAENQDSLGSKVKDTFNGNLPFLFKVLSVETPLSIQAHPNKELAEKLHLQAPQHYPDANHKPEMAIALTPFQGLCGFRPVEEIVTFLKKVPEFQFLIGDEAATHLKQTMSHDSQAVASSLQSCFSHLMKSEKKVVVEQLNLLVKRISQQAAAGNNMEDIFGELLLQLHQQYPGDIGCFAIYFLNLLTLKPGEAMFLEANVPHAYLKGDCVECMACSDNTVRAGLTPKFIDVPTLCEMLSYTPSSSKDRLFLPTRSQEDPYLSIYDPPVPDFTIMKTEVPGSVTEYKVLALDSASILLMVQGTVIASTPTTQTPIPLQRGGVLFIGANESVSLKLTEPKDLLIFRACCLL
# [16] = target: T7, Phosphomannomutase 2 (Homo sapiens, UniProt O15305); experiment: Counter screen SAR assay for PMM2 inhibitors via a fluorescence intensity assay. [Related pubchem assays (depositor defined):AID1545, AID1574]
# T7 sequence (O15305 whole entry): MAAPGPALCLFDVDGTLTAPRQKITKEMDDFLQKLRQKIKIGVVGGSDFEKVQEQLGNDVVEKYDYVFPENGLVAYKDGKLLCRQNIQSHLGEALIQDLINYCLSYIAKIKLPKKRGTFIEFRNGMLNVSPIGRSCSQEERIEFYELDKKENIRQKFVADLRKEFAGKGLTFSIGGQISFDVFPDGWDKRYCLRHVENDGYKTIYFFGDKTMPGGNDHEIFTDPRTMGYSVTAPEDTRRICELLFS
# [17] = target: T8, Alkaline phosphatase, tissue-nonspecific isozyme (Homo sapiens, UniProt P05186); experiment: potency against alkaline phosphatase TNAP – biochemical, luminescent, dose response, SAR follow-up (AID 1056)
# T8 sequence (P05186 whole entry): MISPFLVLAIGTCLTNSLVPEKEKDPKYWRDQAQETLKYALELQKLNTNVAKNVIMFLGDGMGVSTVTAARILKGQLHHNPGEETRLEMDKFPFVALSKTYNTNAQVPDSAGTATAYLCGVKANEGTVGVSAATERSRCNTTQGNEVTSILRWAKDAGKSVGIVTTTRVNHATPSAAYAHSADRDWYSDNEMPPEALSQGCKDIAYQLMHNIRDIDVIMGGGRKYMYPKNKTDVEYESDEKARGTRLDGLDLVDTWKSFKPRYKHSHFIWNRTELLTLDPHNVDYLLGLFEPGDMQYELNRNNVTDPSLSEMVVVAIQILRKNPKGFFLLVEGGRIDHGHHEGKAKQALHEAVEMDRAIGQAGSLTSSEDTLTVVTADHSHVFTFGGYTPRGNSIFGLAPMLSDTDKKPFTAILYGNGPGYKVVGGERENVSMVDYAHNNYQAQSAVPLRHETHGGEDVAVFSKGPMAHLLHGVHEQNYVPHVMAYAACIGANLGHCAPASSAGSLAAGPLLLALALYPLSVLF
# [18] = cells; format: functional, cell-based
# [19] = cells; format: functional, cell-based; remark: listed apart in the source
structure (smiles),measurement,setting,value
Cc1onc(-c2ccccc2)c1C(=O)Nc1sc2c(c1C#N)CCC(C)C2 (stereo not drawn),AC50,[1],26.3 µM (active)
same,AC50,[2],1.12 µM (active)
COc1ccc(-c2cc([C@H]3[C@H]4C=CC[C@@H](C)[C@@H]4C(=O)N3Cc3ccccc3)ccc2F)cc1,AC50,[1],22 µM (active)
same,AC50,[2],2.76 µM (active)
CCCc1nc2oc3c(Cl)ncnc3c2c2c1CCCC2,EC50,[3],> 32 µM (inactive)
same,EC50,[4],> 150 µM (not active)
same,pIC50,[5],< 4.49
same,EC50,[6],> 31.5 µM (inactive)
same,EC50,[7],> 32 µM (inactive)
same,IC50,[8],> 32 µM (inactive)
same,EC50,[9],> 150 µM (not active)
same,IC50,[10],4.64 µM (active)
same,EC50,[11],> 150 µM (not active)
Fc1ccc(CCN=C(S)Nc2ccc(F)c(Cl)c2)cc1,IC50,[12],12.4 µM (active)
same,IC50,[13],8.38 µM (active)
O=c1c2ccc(F)cc2sn1-c1ccc(Cl)c(Cl)c1,IC50,[14],> 100 µM (inactive)
same,IC50,[15],> 50 µM (inactive)
same,IC50,[16],> 100 µM (inactive)
CCOC(=O)c1ccc(-n2sc3ccccc3c2=O)cc1,IC50,[14],1.24 µM (inactive)
same,IC50,[15],23.6 µM (active)
same,IC50,[16],> 100 µM (inactive)
same,IC50,[17],> 100 µM (inactive)
OC(COc1ccc(CNCCc2ccccc2F)cc1)CN1CCCCC1 (stereo not drawn),AC50,[1],33.9 µM (active)
same,EC50,[18],> 29.9 µM (inactive)
same,AC50,[2],> 195 µM (inactive)
same,IC50,[19],> 29.9 µM (inactive)
Cc1cc(C)nc(SCc2ccc(C(=O)N/N=C3\CC(C)CC(C)(C)C3)cc2)n1 (stereo not drawn),IC50,[12],22.7 µM (inactive)
same,IC50,[13],17.9 µM (active)
